# Source: patent US20240228572A1 (i2o Therapeutics, Inc., priority 2020, published 2024)
# *1 amine or outer side, *2 acyl side, *3 side chain or, on linkers, in order; H or OH if unused. Where a SMILES comes first, the peptide text is derived from it. Bridges are numbered along the chain shown (N, C = ends). Side-chain parts run from the residue outwards. The star is where a group is joined. C20 diacid = O=C(O)CCCCCCCCCCCCCCCCCCC(=O)*; γGlu = O=C(O)[C@H](CCC(=O)[*:2])N[*:1]; AEEA = NCCOCCOCC(=O)O
# Legend:
# [1] = target: T1, human Glucagon receptor (GCGR) (Homo sapiens, UniProt P47871); assay: cAMP accumulation assay, CHO-K1 cells expressing human GCGR; type: cell-based; conditions: mean pEC50, Table 10
# T1 construct: A cDNA fragment encoding the full-length open reading frame of the human GCGR; expressed in transfected cells; host or cells: CHO-K1, pcDNA3.1+, Lipofectamine 2000
# T1 sequence (P47871 26-477): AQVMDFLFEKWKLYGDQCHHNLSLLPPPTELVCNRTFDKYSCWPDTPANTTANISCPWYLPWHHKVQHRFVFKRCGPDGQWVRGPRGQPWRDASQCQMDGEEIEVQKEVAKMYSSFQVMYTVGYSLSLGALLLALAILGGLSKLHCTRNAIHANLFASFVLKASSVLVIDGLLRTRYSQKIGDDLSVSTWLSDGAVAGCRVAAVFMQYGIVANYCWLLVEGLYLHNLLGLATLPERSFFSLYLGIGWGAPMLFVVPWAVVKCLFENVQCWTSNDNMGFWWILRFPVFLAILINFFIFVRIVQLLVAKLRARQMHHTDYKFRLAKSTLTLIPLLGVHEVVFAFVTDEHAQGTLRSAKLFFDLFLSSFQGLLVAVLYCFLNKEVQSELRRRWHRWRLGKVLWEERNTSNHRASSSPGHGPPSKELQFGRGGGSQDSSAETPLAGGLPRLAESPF
# [2] = target: T2, human GLP-1 receptor (GLP-1R) (Homo sapiens, UniProt P43220); assay: cAMP accumulation assay, CHO-K1 cells stably expressing human GLP-1R; type: cell-based; conditions: cAMP accumulation, mean pEC50, Table 10
# T2 construct: expressed in transfected cells
# T2 sequence (P43220 24-463): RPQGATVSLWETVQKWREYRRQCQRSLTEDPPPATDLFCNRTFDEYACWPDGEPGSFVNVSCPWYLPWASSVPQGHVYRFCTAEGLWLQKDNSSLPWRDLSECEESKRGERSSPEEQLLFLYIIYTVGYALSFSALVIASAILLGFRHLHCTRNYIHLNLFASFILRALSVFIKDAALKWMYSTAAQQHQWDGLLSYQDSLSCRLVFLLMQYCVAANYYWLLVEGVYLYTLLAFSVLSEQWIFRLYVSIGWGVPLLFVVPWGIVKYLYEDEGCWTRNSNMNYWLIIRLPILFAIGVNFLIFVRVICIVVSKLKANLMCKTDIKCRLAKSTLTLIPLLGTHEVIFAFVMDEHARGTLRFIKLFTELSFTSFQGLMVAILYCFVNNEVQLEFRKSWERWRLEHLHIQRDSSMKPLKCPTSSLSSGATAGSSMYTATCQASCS
Compound,EC50 [1],EC50 [2]
CC(C)C[C@H](NC(=O)[C@H](Cc1ccc(O)cc1)NC(=O)[C@H](CCCCN)NC(=O)[C@H](CO)NC(=O)[C@H](Cc1ccc(O)cc1)NC(=O)[C@H](CC(=O)O)NC(=O)[C@H](CO)NC(=O)[C@@H](NC(=O)[C@H](Cc1ccccc1)NC(=O)[C@@H](NC(=O)CNC(=O)[C@H](Cc1c[nH]cn1)NC(=O)[C@H](CO)NC(=O)[C@@H](N)Cc1ccc(O)cc1)[C@@H](C)O)[C@@H](C)O)C(=O)N[C@@H](CC(=O)O)C(=O)N[C@@H](CCCCNC(=O)CC[C@H](NC(=O)CC[C@H](NC(=O)COCCOCCNC(=O)CCCCCCCCCCCCCCCCCCC(=O)O)C(=O)O)C(=O)O)C(=O)N[C@@H](CCCCN)C(=O)N[C@@H](Cc1ccc(O)cc1)C(=O)N[C@@H](C)C(=O)N[C@H]1CCC(=O)NCCCC[C@@H](C(=O)N[C@@H](Cc2c[nH]c3ccccc23)C(=O)N[C@@H](CC(C)C)C(=O)N[C@@H](CCC(=O)O)C(=O)N[C@@H](CCCCN)C(=O)N[C@@H](CCC(=O)O)C(=O)N2CCC[C@H]2C(=O)N[C@@H](CO)C(=O)N[C@@H](CO)C(=O)NCC(=O)N[C@@H](C)C(=O)N2CCC[C@H]2C(=O)N2CCC[C@H]2C(=O)N2CCC[C@H]2C(=O)N[C@@H](CO)C(=O)O)NC(=O)[C@H](C(C)C)NC(=O)[C@H](Cc2ccccc2)NC(=O)[C@H](CCCCN)NC1=O [Compound A26] (H-YSHGTFTSDYSKYLDK([γGlu-γGlu-AEEA-C20 diacid])KYAEKFVKWLEKEPSSGAPPPS-OH; lactam 20-24; N-terminus assumed),7.94 pM,> 1 nM
CC(C)C[C@H](NC(=O)[C@H](Cc1ccc(O)cc1)NC(=O)[C@H](CCCCN)NC(=O)[C@H](CO)NC(=O)[C@H](Cc1ccc(O)cc1)NC(=O)[C@H](CC(=O)O)NC(=O)[C@H](CO)NC(=O)[C@@H](NC(=O)[C@H](Cc1ccccc1)NC(=O)[C@@H](NC(=O)CNC(=O)[C@H](Cc1c[nH]cn1)NC(=O)[C@H](CO)NC(=O)[C@@H](N)Cc1ccc(O)cc1)[C@@H](C)O)[C@@H](C)O)C(=O)N[C@@H](CC(=O)O)C(=O)N[C@@H](CCCCNC(=O)CC[C@H](NC(=O)CC[C@H](NC(=O)COCCOCCNC(=O)CCCCCCCCCCCCCCCCCCC(=O)O)C(=O)O)C(=O)O)C(=O)N[C@@H](CCCCN)C(=O)N[C@@H](Cc1ccc(O)cc1)C(=O)N[C@@H](C)C(=O)N[C@H]1CCC(=O)NCCCC[C@@H](C(=O)N[C@@H](Cc2c[nH]c3ccccc23)C(=O)N[C@@H](CC(C)C)C(=O)N[C@@H](CCC(=O)O)C(=O)N[C@@H](CC(N)=O)C(=O)N[C@@H](CCC(=O)O)C(=O)N2CCC[C@H]2C(=O)N[C@@H](CO)C(=O)N[C@@H](CO)C(=O)NCC(=O)N[C@@H](C)C(=O)N2CCC[C@H]2C(=O)N2CCC[C@H]2C(=O)N2CCC[C@H]2C(=O)N[C@@H](CO)C(=O)O)NC(=O)[C@H](C(C)C)NC(=O)[C@H](Cc2ccccc2)NC(=O)[C@H](CCCCN)NC1=O [Compound A27] (H-YSHGTFTSDYSKYLDK([γGlu-γGlu-AEEA-C20 diacid])KYAEKFVKWLENEPSSGAPPPS-OH; lactam 20-24; N-terminus assumed),1 pM,> 1 nM
CC(C)C[C@H](NC(=O)[C@H](Cc1ccc(O)cc1)NC(=O)[C@H](CCCCN)NC(=O)[C@H](CO)NC(=O)[C@H](Cc1ccc(O)cc1)NC(=O)[C@H](CC(=O)O)NC(=O)[C@H](CO)NC(=O)[C@@H](NC(=O)[C@H](Cc1ccccc1)NC(=O)[C@@H](NC(=O)CNC(=O)[C@H](Cc1c[nH]cn1)NC(=O)[C@H](CO)NC(=O)[C@@H](N)Cc1ccc(O)cc1)[C@@H](C)O)[C@@H](C)O)C(=O)N[C@@H](CC(=O)O)C(=O)N[C@@H](CCCCNC(=O)CC[C@H](NC(=O)CC[C@H](NC(=O)COCCOCCNC(=O)CCCCCCCCCCCCCCCCCCC(=O)O)C(=O)O)C(=O)O)C(=O)N[C@@H](CCCCN)C(=O)N[C@@H](Cc1ccc(O)cc1)C(=O)N[C@@H](C)C(=O)N[C@H]1CCC(=O)NCCCC[C@@H](C(=O)N[C@@H](Cc2c[nH]c3ccccc23)C(=O)N[C@@H](CC(C)C)C(=O)N[C@@H](CCC(=O)O)C(=O)N[C@@H](CO)C(=O)N[C@@H](CCC(=O)O)C(=O)N2CCC[C@H]2C(=O)N[C@@H](CO)C(=O)N[C@@H](CO)C(=O)NCC(=O)N[C@@H](C)C(=O)N2CCC[C@H]2C(=O)N2CCC[C@H]2C(=O)N2CCC[C@H]2C(=O)N[C@@H](CO)C(=O)O)NC(=O)[C@H](C(C)C)NC(=O)[C@H](Cc2ccccc2)NC(=O)[C@H](CCCCN)NC1=O [Compound A28] (H-YSHGTFTSDYSKYLDK([γGlu-γGlu-AEEA-C20 diacid])KYAEKFVKWLESEPSSGAPPPS-OH; lactam 20-24; N-terminus assumed),2 pM,> 1 nM
CC(C)C[C@H](NC(=O)[C@H](Cc1ccc(O)cc1)NC(=O)[C@H](CCCCN)NC(=O)[C@H](CO)NC(=O)[C@H](Cc1ccc(O)cc1)NC(=O)[C@H](CC(=O)O)NC(=O)[C@H](CO)NC(=O)[C@@H](NC(=O)[C@H](Cc1ccccc1)NC(=O)[C@@H](NC(=O)CNC(=O)[C@H](Cc1c[nH]cn1)NC(=O)[C@H](CO)NC(=O)[C@@H](N)Cc1ccc(O)cc1)[C@@H](C)O)[C@@H](C)O)C(=O)N[C@@H](CC(=O)O)C(=O)N[C@@H](CCCCNC(=O)CC[C@H](NC(=O)CC[C@H](NC(=O)COCCOCCNC(=O)CCCCCCCCCCCCCCCCCCC(=O)O)C(=O)O)C(=O)O)C(=O)N[C@@H](CCCCN)C(=O)N[C@@H](Cc1ccc(O)cc1)C(=O)N[C@@H](C)C(=O)N[C@H]1CCC(=O)NCCCC[C@@H](C(=O)N[C@@H](Cc2c[nH]c3ccccc23)C(=O)N[C@@H](CC(C)C)C(=O)N[C@@H](CCC(=O)O)C(=O)N[C@@H](CC(=O)O)C(=O)N[C@@H](CCC(=O)O)C(=O)N2CCC[C@H]2C(=O)N[C@@H](CO)C(=O)N[C@@H](CO)C(=O)NCC(=O)N[C@@H](CCC(=O)O)C(=O)N2CCC[C@H]2C(=O)N2CCC[C@H]2C(=O)N2CCC[C@H]2C(=O)N[C@@H](CO)C(=O)O)NC(=O)[C@H](C(C)C)NC(=O)[C@H](Cc2ccccc2)NC(=O)[C@H](CCCCN)NC1=O [Compound A31] (H-YSHGTFTSDYSKYLDK([γGlu-γGlu-AEEA-C20 diacid])KYAEKFVKWLEDEPSSGEPPPS-OH; lactam 20-24; N-terminus assumed),1.26 pM,> 1 nM
CC(C)C[C@H](NC(=O)[C@H](Cc1ccc(O)cc1)NC(=O)[C@H](CCCCN)NC(=O)[C@H](CO)NC(=O)[C@H](Cc1ccc(O)cc1)NC(=O)[C@H](CC(=O)O)NC(=O)[C@H](CO)NC(=O)[C@@H](NC(=O)[C@H](Cc1ccccc1)NC(=O)[C@@H](NC(=O)CNC(=O)[C@H](Cc1c[nH]cn1)NC(=O)[C@H](CO)NC(=O)[C@@H](N)Cc1ccc(O)cc1)[C@@H](C)O)[C@@H](C)O)C(=O)N[C@@H](CC(=O)O)C(=O)N[C@@H](CCCCNC(=O)CC[C@H](NC(=O)CC[C@H](NC(=O)COCCOCCNC(=O)CCCCCCCCCCCCCCCCCCC(=O)O)C(=O)O)C(=O)O)C(=O)N[C@@H](CCCCN)C(=O)N[C@@H](Cc1ccc(O)cc1)C(=O)N[C@@H](C)C(=O)N[C@H]1CCC(=O)NCCCC[C@@H](C(=O)N[C@@H](Cc2c[nH]c3ccccc23)C(=O)N[C@@H](CC(C)C)C(=O)N[C@@H](CCC(=O)O)C(=O)N[C@@H](CC(=O)O)C(=O)N[C@@H](CCC(=O)O)C(=O)N2CCC[C@H]2C(=O)N[C@@H](CO)C(=O)N[C@@H](CO)C(=O)NCC(=O)N[C@@H](CCCCN)C(=O)N2CCC[C@H]2C(=O)N2CCC[C@H]2C(=O)N2CCC[C@H]2C(=O)N[C@@H](CO)C(=O)O)NC(=O)[C@H](C(C)C)NC(=O)[C@H](Cc2ccccc2)NC(=O)[C@H](CCCCN)NC1=O [Compound A32] (H-YSHGTFTSDYSKYLDK([γGlu-γGlu-AEEA-C20 diacid])KYAEKFVKWLEDEPSSGKPPPS-OH; lactam 20-24; N-terminus assumed),2 pM,> 1 nM
